Our source for the IC50, Ratio IC50 and inhibition in vivo values is ChEMBL document CHEMBL6127078, “Discovery of 7-(1-methyl-1H-pyrazol-4-yl)-1,6-naphthyridine derivatives as potent inhibitors of rearranged during transfection (RET) and RET solvent-front mutants for overcoming selpercatinib resistance” (Eur J Med Chem, 2024).

Molecules are shown by their SMILES.

Chain of Proto-oncogene tyrosine-protein kinase receptor Ret (Homo sapiens, UniProt P07949, V804L) (P07949 29-1114 V804L limits assumed): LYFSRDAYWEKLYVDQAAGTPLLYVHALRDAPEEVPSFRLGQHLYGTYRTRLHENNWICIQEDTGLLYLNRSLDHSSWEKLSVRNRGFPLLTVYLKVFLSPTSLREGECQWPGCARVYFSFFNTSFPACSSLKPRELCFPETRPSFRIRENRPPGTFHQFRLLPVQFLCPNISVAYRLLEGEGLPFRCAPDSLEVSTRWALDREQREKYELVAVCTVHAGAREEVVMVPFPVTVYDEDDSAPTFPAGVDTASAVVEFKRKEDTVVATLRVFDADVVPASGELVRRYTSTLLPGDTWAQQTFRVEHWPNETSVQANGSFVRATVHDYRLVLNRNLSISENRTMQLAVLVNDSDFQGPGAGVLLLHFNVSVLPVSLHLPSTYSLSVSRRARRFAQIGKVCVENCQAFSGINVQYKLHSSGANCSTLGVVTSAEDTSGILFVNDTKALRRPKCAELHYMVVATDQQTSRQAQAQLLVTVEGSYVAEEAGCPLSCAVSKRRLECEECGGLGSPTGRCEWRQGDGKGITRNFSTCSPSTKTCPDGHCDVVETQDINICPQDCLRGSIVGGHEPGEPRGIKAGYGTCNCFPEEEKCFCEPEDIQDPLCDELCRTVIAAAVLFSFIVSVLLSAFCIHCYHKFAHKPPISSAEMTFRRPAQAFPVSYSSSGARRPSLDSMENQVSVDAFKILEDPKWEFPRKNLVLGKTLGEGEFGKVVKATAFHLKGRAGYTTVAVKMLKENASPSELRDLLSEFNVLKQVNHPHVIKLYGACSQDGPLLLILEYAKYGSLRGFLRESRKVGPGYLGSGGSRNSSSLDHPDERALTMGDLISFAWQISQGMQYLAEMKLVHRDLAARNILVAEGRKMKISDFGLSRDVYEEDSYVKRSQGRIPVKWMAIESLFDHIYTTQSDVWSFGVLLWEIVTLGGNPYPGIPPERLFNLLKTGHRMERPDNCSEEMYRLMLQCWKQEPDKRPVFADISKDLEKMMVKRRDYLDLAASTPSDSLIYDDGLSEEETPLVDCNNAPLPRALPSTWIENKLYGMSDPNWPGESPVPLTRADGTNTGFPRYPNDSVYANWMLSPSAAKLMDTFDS

In one assay the target is Proto-oncogene tyrosine-protein kinase receptor Ret (Homo sapiens, UniProt P07949). Nature of the assay: Inhibition of wild type RET (unknown origin) by FRET-based ZLyte kinase assay.
Chain of Proto-oncogene tyrosine-protein kinase receptor Ret (Homo sapiens, UniProt P07949) (P07949 whole entry): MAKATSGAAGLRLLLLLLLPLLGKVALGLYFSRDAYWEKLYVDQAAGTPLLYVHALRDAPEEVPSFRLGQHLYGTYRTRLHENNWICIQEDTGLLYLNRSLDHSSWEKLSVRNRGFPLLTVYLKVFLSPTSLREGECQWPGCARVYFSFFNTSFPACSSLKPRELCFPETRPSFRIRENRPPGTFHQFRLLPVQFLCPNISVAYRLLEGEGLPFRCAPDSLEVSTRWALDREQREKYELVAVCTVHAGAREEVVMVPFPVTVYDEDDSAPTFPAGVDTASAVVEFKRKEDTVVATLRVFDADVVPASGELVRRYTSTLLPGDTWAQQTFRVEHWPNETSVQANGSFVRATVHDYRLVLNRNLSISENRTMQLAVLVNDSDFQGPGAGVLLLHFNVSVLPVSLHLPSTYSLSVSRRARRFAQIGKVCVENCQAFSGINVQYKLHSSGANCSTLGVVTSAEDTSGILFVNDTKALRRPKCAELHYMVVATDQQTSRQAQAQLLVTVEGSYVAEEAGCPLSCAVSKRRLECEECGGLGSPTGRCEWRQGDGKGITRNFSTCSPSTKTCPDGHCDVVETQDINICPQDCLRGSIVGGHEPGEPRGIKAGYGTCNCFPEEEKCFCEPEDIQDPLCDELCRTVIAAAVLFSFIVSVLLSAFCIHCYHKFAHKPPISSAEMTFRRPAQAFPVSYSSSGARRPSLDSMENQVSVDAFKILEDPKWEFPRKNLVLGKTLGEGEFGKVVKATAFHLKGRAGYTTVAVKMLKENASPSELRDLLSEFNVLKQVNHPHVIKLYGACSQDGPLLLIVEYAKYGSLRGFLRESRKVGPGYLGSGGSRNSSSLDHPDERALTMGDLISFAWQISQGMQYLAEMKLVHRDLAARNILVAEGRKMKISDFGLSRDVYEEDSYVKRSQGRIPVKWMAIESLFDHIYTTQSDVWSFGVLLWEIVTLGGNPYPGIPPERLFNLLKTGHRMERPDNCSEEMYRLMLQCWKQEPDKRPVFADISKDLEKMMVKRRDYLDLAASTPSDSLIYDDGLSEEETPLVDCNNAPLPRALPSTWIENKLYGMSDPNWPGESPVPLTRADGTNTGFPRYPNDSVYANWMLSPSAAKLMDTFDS
Settings: not given
A word on the IC50: it is the concentration needed to halve the response being measured. `Cn1cc(-c2cc3ncccc3c(-c3ccc(N4CC5CC(C4)N5C(=O)Cc4cc(F)cc(F)c4)nc3)n2)cn1` returned an IC50 of 6.7 nM.
The same measure, in the same setting: as for `COc1ccc(CN2C3CC2CN(c2ccc(-c4nc(-c5ccc(F)cc5)cc5ncccc45)cn2)C3)cn1`, the figure is 242 nM; as for `COc1ccc(CN2C3CC2CN(c2ccc(-c4nc(-c5cnn(C)c5)cc5ncccc45)cn2)C3)cc1[N+](=O)[O-]`, 247 nM.
Molecule `Cc1ccc(CN2C3CC2CN(c2ccc(-c4nc(-c5cnn(C)c5)cc5ncccc45)cn2)C3)cn1` displayed a concentration for half-maximal inhibition (IC50) of 12.5 nM.
The molecule `COc1ccc(CN2C3CC2CN(c2ccc(-c4nc(C)cc5ncccc45)cn2)C3)cn1` yielded an IC50 of 28.5 nM.
`COc1ccc(CC(=O)N2C3CC2CN(c2ccc(-c4nc(-c5cnn(C)c5)cc5ncccc45)cn2)C3)cn1` came in with an IC50 of 5.7 nM.
`Cn1cc(-c2cc3ncccc3c(-c3ccc(N4CC5CC(C4)N5Cc4cccnc4)nc3)n2)cn1`: half-maximal inhibition (IC50) was put at 26.7 nM.
The same measure, in the same setting: under `Cn1cc(-c2cc3ncccc3c(-c3ccc(N4CC5CC(C4)N5C(=O)CC4CCOCC4)nc3)n2)cn1` stands 62.2 nM.
Molecule `COc1ccc(CN2C3CC2CN(c2ccc(-c4cccc5nccnc45)cn2)C3)cn1` yielded an IC50 of 172 nM.
Same read-out and setting: as for `COc1ccc(CN2C3CC2CN(c2ccc(-c4cccc5cnccc45)cn2)C3)cn1`, the figure is 591 nM.
Molecule `COc1ccc(CN2C3CC2CN(c2ccc(-c4cccc5ncncc45)cn2)C3)cn1` gave an IC50 of 86.3 nM.
Turning to `COc1ccc(CN2C3CC2CN(c2ccc(-c4nc(-c5cnn(C)c5)cc5ncccc45)cn2)C3)cc1Cl`, inhibition was half-maximal at 25.1 nM (IC50).
The same measure, in the same setting: under `COc1ccc(CN2C3CC2CN(c2ccc(-c4nc(-c5ccn(C)n5)cc5ncccc45)cn2)C3)cn1` stands 49.4 nM; under `COc1ccc(CN2C3CC2CN(c2ccc(-c4nc(-c5cnn(C)c5)cc5ncccc45)cn2)C3)cn1`, 3.8 nM.
Same read-out and setting: under `Cn1cc(-c2cc3ncccc3c(-c3ccc(N4CC5CC(C4)N5C(=O)Cc4cccc(F)c4)nc3)n2)cn1` stands 4.8 nM.
Same read-out and setting: as for `COc1ccc(CN2C3CC2CN(c2ccc(-c4nc(-c5cnn(C)c5)cc5ncccc45)cn2)C3)cc1F`, the figure is 5.5 nM.

Another assay has as its target Proto-oncogene tyrosine-protein kinase receptor Ret (Homo sapiens, UniProt P07949, V804L). Briefly: Inhibition of RET V804L mutant (unknown origin) by FRET-based ZLyte kinase assay.
Settings: not given
In turn, `Cn1cc(-c2cc3ncccc3c(-c3ccc(N4CC5CC(C4)N5C(=O)Cc4cc(F)cc(F)c4)nc3)n2)cn1` returned an IC50 of 4.7 nM.
On to `COc1ccc(CN2C3CC2CN(c2ccc(-c4nc(-c5ccc(F)cc5)cc5ncccc45)cn2)C3)cn1`, for which inhibition was half-maximal at 517 nM (IC50).
On to `COc1ccc(CN2C3CC2CN(c2ccc(-c4nc(-c5cnn(C)c5)cc5ncccc45)cn2)C3)cc1[N+](=O)[O-]`, for which half-maximal inhibition (IC50) was put at 95.2 nM.
Consider `Cc1ccc(CN2C3CC2CN(c2ccc(-c4nc(-c5cnn(C)c5)cc5ncccc45)cn2)C3)cn1`, for which inhibition was half-maximal at 14.4 nM (IC50).
As for `COc1ccc(CN2C3CC2CN(c2ccc(-c4nc(C)cc5ncccc45)cn2)C3)cn1`, the IC50 is 18.6 nM.
In turn, `COc1ccc(CC(=O)N2C3CC2CN(c2ccc(-c4nc(-c5cnn(C)c5)cc5ncccc45)cn2)C3)cn1` returned an IC50 of 2.6 nM.
Molecule `Cn1cc(-c2cc3ncccc3c(-c3ccc(N4CC5CC(C4)N5Cc4cccnc4)nc3)n2)cn1` registered an IC50 of 41.1 nM.
`Cn1cc(-c2cc3ncccc3c(-c3ccc(N4CC5CC(C4)N5C(=O)CC4CCOCC4)nc3)n2)cn1`: the IC50 worked out at 91.4 nM.
The molecule `COc1ccc(CN2C3CC2CN(c2ccc(-c4cccc5nccnc45)cn2)C3)cn1` came in with an IC50 of 135 nM.
As to `COc1ccc(CN2C3CC2CN(c2ccc(-c4cccc5cnccc45)cn2)C3)cn1`, the IC50 was determined as 786 nM.
The molecule `COc1ccc(CN2C3CC2CN(c2ccc(-c4cccc5ncncc45)cn2)C3)cn1` showed an IC50 of 70.4 nM.
With `COc1ccc(CN2C3CC2CN(c2ccc(-c4nc(-c5cnn(C)c5)cc5ncccc45)cn2)C3)cc1Cl`, the IC50 was determined as 8.5 nM.
Same read-out and setting: under `COc1ccc(CN2C3CC2CN(c2ccc(-c4nc(-c5ccn(C)n5)cc5ncccc45)cn2)C3)cn1` stands 21.1 nM; under `COc1ccc(CN2C3CC2CN(c2ccc(-c4nc(-c5cnn(C)c5)cc5ncccc45)cn2)C3)cn1`, 0.4 nM.
With `Cn1cc(-c2cc3ncccc3c(-c3ccc(N4CC5CC(C4)N5C(=O)Cc4cccc(F)c4)nc3)n2)cn1`, half-maximal inhibition (IC50) required 2.3 nM.
Consider `COc1ccc(CN2C3CC2CN(c2ccc(-c4nc(-c5cnn(C)c5)cc5ncccc45)cn2)C3)cc1F`, for which half-maximal inhibition (IC50) required 0.3 nM.

The target in a further assay is Proto-oncogene tyrosine-protein kinase receptor Ret (Homo sapiens, UniProt P07949, M918T). Nature of the assay: Inhibition of RET M918T mutant (unknown origin) by FRET-based ZLyte kinase assay.
Chain of Proto-oncogene tyrosine-protein kinase receptor Ret (Homo sapiens, UniProt P07949, M918T) (P07949 29-1114 M918T limits assumed): as the sequence (P07949 29-1114 V804L limits assumed) above, with L776V, M890T counted along it
Settings: not given
Consider `Cn1cc(-c2cc3ncccc3c(-c3ccc(N4CC5CC(C4)N5C(=O)Cc4cc(F)cc(F)c4)nc3)n2)cn1`, for which the IC50 was found to be 6.7 nM.
Same read-out and setting: as for `COc1ccc(CN2C3CC2CN(c2ccc(-c4nc(-c5ccc(F)cc5)cc5ncccc45)cn2)C3)cn1`, the figure is 408 nM; as for `COc1ccc(CN2C3CC2CN(c2ccc(-c4nc(-c5cnn(C)c5)cc5ncccc45)cn2)C3)cc1[N+](=O)[O-]`, 127 nM.
On to `Cc1ccc(CN2C3CC2CN(c2ccc(-c4nc(-c5cnn(C)c5)cc5ncccc45)cn2)C3)cn1`, for which inhibition was half-maximal at 16.2 nM (IC50).
With `COc1ccc(CN2C3CC2CN(c2ccc(-c4nc(C)cc5ncccc45)cn2)C3)cn1`, the IC50 is 33.6 nM.
In the case of `COc1ccc(CC(=O)N2C3CC2CN(c2ccc(-c4nc(-c5cnn(C)c5)cc5ncccc45)cn2)C3)cn1`, the IC50 is 4.9 nM.
Same read-out and setting: under `Cn1cc(-c2cc3ncccc3c(-c3ccc(N4CC5CC(C4)N5Cc4cccnc4)nc3)n2)cn1` stands 33.5 nM.
For the molecule `Cn1cc(-c2cc3ncccc3c(-c3ccc(N4CC5CC(C4)N5C(=O)CC4CCOCC4)nc3)n2)cn1`, the IC50 was 54.9 nM.
With `COc1ccc(CN2C3CC2CN(c2ccc(-c4cccc5nccnc45)cn2)C3)cn1`, the midpoint of inhibition, the IC50, lay at 141 nM.
On to `COc1ccc(CN2C3CC2CN(c2ccc(-c4cccc5cnccc45)cn2)C3)cn1`, for which half-maximal inhibition (IC50) was put at 615 nM.
`COc1ccc(CN2C3CC2CN(c2ccc(-c4cccc5ncncc45)cn2)C3)cn1` had an IC50 of 91.5 nM.
Molecule `COc1ccc(CN2C3CC2CN(c2ccc(-c4nc(-c5cnn(C)c5)cc5ncccc45)cn2)C3)cc1Cl` displayed an IC50 of 11.3 nM.
Molecule `COc1ccc(CN2C3CC2CN(c2ccc(-c4nc(-c5ccn(C)n5)cc5ncccc45)cn2)C3)cn1` came in with an IC50 of 50.4 nM.
On the same count and under the same terms, under `COc1ccc(CN2C3CC2CN(c2ccc(-c4nc(-c5cnn(C)c5)cc5ncccc45)cn2)C3)cn1` stands 1.2 nM; under `Cn1cc(-c2cc3ncccc3c(-c3ccc(N4CC5CC(C4)N5C(=O)Cc4cccc(F)c4)nc3)n2)cn1`, 3 nM.
As for `COc1ccc(CN2C3CC2CN(c2ccc(-c4nc(-c5cnn(C)c5)cc5ncccc45)cn2)C3)cc1F`, inhibition was half-maximal at 0.6 nM (IC50).

Another assay deals with Proto-oncogene tyrosine-protein kinase receptor Ret (Homo sapiens, UniProt P07949, G810R). Briefly: Inhibition of RET G810R mutant (unknown origin) by FRET-based ZLyte kinase assay.
Chain of Proto-oncogene tyrosine-protein kinase receptor Ret (Homo sapiens, UniProt P07949, G810R) (P07949 29-1114 G810R limits assumed): as the sequence (P07949 29-1114 V804L limits assumed) above, with L776V, G782R counted along it
Settings: not given
The molecule `Cn1cc(-c2cc3ncccc3c(-c3ccc(N4CC5CC(C4)N5C(=O)Cc4cc(F)cc(F)c4)nc3)n2)cn1` displayed an IC50 of 221 nM.
With `Cc1ccc(CN2C3CC2CN(c2ccc(-c4nc(-c5cnn(C)c5)cc5ncccc45)cn2)C3)cn1`, the IC50 worked out at 437 nM.
Regarding `COc1ccc(CN2C3CC2CN(c2ccc(-c4nc(C)cc5ncccc45)cn2)C3)cn1`, it took 416 nM to reach half-maximal inhibition (IC50).
Same read-out and setting: as for `COc1ccc(CC(=O)N2C3CC2CN(c2ccc(-c4nc(-c5cnn(C)c5)cc5ncccc45)cn2)C3)cn1`, the figure is 132 nM; as for `Cn1cc(-c2cc3ncccc3c(-c3ccc(N4CC5CC(C4)N5Cc4cccnc4)nc3)n2)cn1`, 371 nM.
For `COc1ccc(CN2C3CC2CN(c2ccc(-c4cccc5ncncc45)cn2)C3)cn1`, half-maximal inhibition (IC50) required 307 nM.
For `COc1ccc(CN2C3CC2CN(c2ccc(-c4nc(-c5cnn(C)c5)cc5ncccc45)cn2)C3)cc1Cl`, inhibition was half-maximal at 85.9 nM (IC50).
Still for that read-out and setting: under `COc1ccc(CN2C3CC2CN(c2ccc(-c4nc(-c5ccn(C)n5)cc5ncccc45)cn2)C3)cn1` stands 96.7 nM; under `COc1ccc(CN2C3CC2CN(c2ccc(-c4nc(-c5cnn(C)c5)cc5ncccc45)cn2)C3)cn1`, 56.2 nM.
`Cn1cc(-c2cc3ncccc3c(-c3ccc(N4CC5CC(C4)N5C(=O)Cc4cccc(F)c4)nc3)n2)cn1` registered a 50% inhibitory concentration (IC50) of 149 nM.
As to `COc1ccc(CN2C3CC2CN(c2ccc(-c4nc(-c5cnn(C)c5)cc5ncccc45)cn2)C3)cc1F`, the IC50 turned out to be 37.8 nM.

The subject of the next assay is BaF3. Nature of the assay: Antiproliferative activity against mouse BaF3 cells harbouring KIF5B-RET wild type assessed as inhibition of cell viability.
Settings: not given
It counts as functional, cell-based.
Turning to `COc1ccc(CN2C3CC2CN(c2ccc(-c4cc(OCC(C)(C)O)cn5ncc(C#N)c45)cn2)C3)cn1` [SELPERCATINIB], the IC50 amounted to 8.2 nM.

A further assay has as its system BaF3. Nature of the assay: Antiproliferative activity against mouse BaF3 cells harbouring CCDC6-RET wild type assessed as inhibition of cell viability. It counts as functional, cell-based.
Settings: not given
For `COc1ccc(CN2C3CC2CN(c2ccc(-c4cc(OCC(C)(C)O)cn5ncc(C#N)c45)cn2)C3)cn1` [SELPERCATINIB], the IC50 came to 9.5 nM.

The next assay has as its system BaF3. Nature of the assay: Antiproliferative activity against mouse BaF3 cells harbouring KIF5B-RET V804L mutant assessed as inhibition of cell viability. Type of assay: functional, cell-based.
Settings: not given
As to `COc1ccc(CN2C3CC2CN(c2ccc(-c4cc(OCC(C)(C)O)cn5ncc(C#N)c45)cn2)C3)cn1` [SELPERCATINIB], the IC50 is 17.8 nM.

Another assay deals with BaF3. Nature of the assay: Antiproliferative activity against mouse BaF3 cells harbouring KIF5B-RET G810R mutant assessed as inhibition of cell viability.
Settings: not given
Type of assay: functional, cell-based.
As for `COc1ccc(CN2C3CC2CN(c2ccc(-c4cc(OCC(C)(C)O)cn5ncc(C#N)c45)cn2)C3)cn1` [SELPERCATINIB], the concentration for half-maximal inhibition (IC50) is 2170 nM.

A further assay has as its system BaF3. Briefly: Antiproliferative activity against mouse BaF3 cells harbouring CCDC6-RET G810R mutant assessed as inhibition of cell viability. Type of assay: functional, cell-based.
Settings: not given
`COc1ccc(CN2C3CC2CN(c2ccc(-c4cc(OCC(C)(C)O)cn5ncc(C#N)c45)cn2)C3)cn1` [SELPERCATINIB]: the IC50 was 896 nM.

A further assay relates to Proto-oncogene tyrosine-protein kinase receptor Ret (Homo sapiens), P07949 [G810R]. Briefly: Potency index, ratio of selpercatinib IC50 to test compound IC50 for inhibition of RET G810R mutant (unknown origin) by FRET-based ZLyte kinase assay.
Chain of Proto-oncogene tyrosine-protein kinase receptor Ret (Homo sapiens), P07949 [G810R] (P07949 whole entry G810R): as the sequence (P07949 whole entry) above, with G810R counted along it
Settings: not given
For `COc1ccc(CN2C3CC2CN(c2ccc(-c4nc(-c5cnn(C)c5)cc5ncccc45)cn2)C3)cn1`, the Ratio IC50 is 4.
Still for that read-out and setting: under `COc1ccc(CN2C3CC2CN(c2ccc(-c4nc(-c5cnn(C)c5)cc5ncccc45)cn2)C3)cc1F` stands 6.

For a further assay, the system named is BaF3. Briefly: Antitumor activity against mouse BaF3 cells harbouring KIF5B-RET-wild type xenografted in mouse model assessed as tumor growth inhibition at 10 mg/kg BID measured upto 14 days relative to control. The settings on record: BaF3, 336 h, time <= 14 day, read-out: TGI. It counts as functional.
As to `COc1ccc(CN2C3CC2CN(c2ccc(-c4cc(OCC(C)(C)O)cn5ncc(C#N)c45)cn2)C3)cn1` [SELPERCATINIB], the inhibition in vivo at 10 mg/kg worked out at 89%.

Another assay deals with BaF3. Briefly: Antitumor activity against mouse BaF3 cells harbouring KIF5B-RET G810R mutant xenografted in mouse model assessed as tumor growth inhibition at 10 mg/kg BID measured upto 14 days relative to control. It counts as functional. The settings on record: BaF3, 336 h, time <= 14 day, read-out: TGI.
For the molecule `COc1ccc(CN2C3CC2CN(c2ccc(-c4cc(OCC(C)(C)O)cn5ncc(C#N)c45)cn2)C3)cn1` [SELPERCATINIB], the inhibition in vivo at 10 mg/kg came to 20%.
